From US10351548B2, “2-oxo-1,2-dihydropyridine-3-carboxamide compounds and their use as inhibitors of PDK1” (INTERNATIONAL SOCIETY FOR DRUG DEVELOPMENT S.R.L., priority 2015, dated 2019)
Read-outs that look alike come from different tables or passages of the source.

Legend:
Assay in all cases: IB35 kinases profiling at 100 nM (ZLYTE)
Type in all cases: biochemical
CHEK1 (CHK1) = CHEK1 (CHK1) (Homo sapiens (Human), UniProt O14757); conditions: IB35 100 nM, ATP Km app
Text: (§1) The results are reported below

ROCK1 = ROCK1 (Homo sapiens (Human), UniProt Q13464); conditions: IB35 100 nM, ATP Km app
Text: as §1

MARK1 (MARK) = MARK1 (MARK) (Homo sapiens (Human), UniProt Q9P0L2); conditions: IB35 100 nM, ATP Km app
Text: as §1

PRKCE (PKC epsilon) = PRKCE (PKC epsilon) (Homo sapiens (Human), UniProt Q02156); conditions: IB35 100 nM, ATP Km app
Text: as §1

AKT1 (PKB alpha) = AKT1 (PKB alpha) (Homo sapiens (Human), UniProt P31749); conditions: IB35 100 nM, ATP Km app
Text: as §1

PRKCZ (PKC zeta) = PRKCZ (PKC zeta) (Homo sapiens (Human), UniProt Q05513); conditions: IB35 100 nM, ATP Km app
Text: as §1

CSNK1G1 (CK1 gamma 1) = CSNK1G1 (CK1 gamma 1) (Homo sapiens (Human), UniProt Q9HCP0); conditions: IB35 100 nM, ATP Km app
Text: as §1

MAP2K1 (MEK1) = MAP2K1 (MEK1) (Homo sapiens (Human), UniProt Q02750); conditions: IB35 100 nM, ATP 100
Text: as §1

ABL1 = ABL1 (Homo sapiens (Human), UniProt P00519); conditions: IB35 100 nM, ATP Km app
Text: as §1

PRKACA (PKA) = PRKACA (PKA) (Homo sapiens (Human), UniProt P17612); conditions: IB35 100 nM, ATP Km app
Text: as §1

CDK2/cyclin A = CDK2/cyclin A (Homo sapiens (Human), UniProt P24941); conditions: IB35 100 nM, ATP Km app
Text: as §1

LCK = LCK (Homo sapiens (Human), UniProt P06239); conditions: IB35 100 nM, ATP Km app
Text: as §1

ITK = ITK (Homo sapiens (Human), UniProt Q08881); conditions: IB35 100 nM, ATP Km app
Text: as §1

PRKCB1 (PKC beta I) = PRKCB1 (PKC beta I) (Homo sapiens (Human), UniProt P05771); conditions: IB35 100 nM, ATP Km app
Text: as §1

IRAK4 = IRAK4 (Homo sapiens (Human), UniProt Q9NWZ3); conditions: IB35 100 nM, ATP Km app
Text: as §1

JAK1 = JAK1 (Homo sapiens (Human), UniProt P23458); conditions: IB35 100 nM, ATP Km app
Text: as §1

GSK3B (GSK3 beta) = GSK3B (GSK3 beta) (Homo sapiens (Human), UniProt P49841); conditions: IB35 100 nM, ATP Km app
Text: as §1

AKT3 (PKB gamma) = AKT3 (PKB gamma) (Homo sapiens (Human), UniProt Q9Y243); conditions: IB35 100 nM, ATP Km app
Text: as §1

ROCK2 = ROCK2 (Homo sapiens (Human), UniProt O75116); conditions: IB35 100 nM, ATP Km app
Text: as §1

GSK3A (GSK3 alpha) = GSK3A (GSK3 alpha) (Homo sapiens (Human), UniProt P49840); conditions: IB35 100 nM, ATP Km app
Text: as §1

CHEK2 (CHK2) = CHEK2 (CHK2) (Homo sapiens (Human), UniProt O96017); conditions: IB35 100 nM, ATP Km app
Text: as §1

PRKCA (PKC alpha) = PRKCA (PKC alpha) (Homo sapiens (Human), UniProt P17252); conditions: IB35 100 nM, ATP Km app
Text: as §1

BRAF = BRAF (Homo sapiens (Human), UniProt P15056); conditions: IB35 100 nM, ATP 100
Text: as §1

GRK5 = GRK5 (Homo sapiens (Human), UniProt P34947); conditions: IB35 100 nM, ATP Km app
Text: as §1

CLK1 = CLK1 (Homo sapiens (Human), UniProt P49759); conditions: IB35 100 nM, ATP Km app
Text: as §1

CDK1/cyclin B = CDK1/cyclin B (Homo sapiens (Human), UniProt P06493); conditions: IB35 100 nM, ATP Km app
Text: as §1

RPS6KA1 (RSK1) = RPS6KA1 (RSK1) (Homo sapiens (Human), UniProt Q15418); conditions: IB35 100 nM, ATP Km app
Text: as §1

Sequence of MARK1 (MARK) (Q9P0L2 whole entry, species assumed): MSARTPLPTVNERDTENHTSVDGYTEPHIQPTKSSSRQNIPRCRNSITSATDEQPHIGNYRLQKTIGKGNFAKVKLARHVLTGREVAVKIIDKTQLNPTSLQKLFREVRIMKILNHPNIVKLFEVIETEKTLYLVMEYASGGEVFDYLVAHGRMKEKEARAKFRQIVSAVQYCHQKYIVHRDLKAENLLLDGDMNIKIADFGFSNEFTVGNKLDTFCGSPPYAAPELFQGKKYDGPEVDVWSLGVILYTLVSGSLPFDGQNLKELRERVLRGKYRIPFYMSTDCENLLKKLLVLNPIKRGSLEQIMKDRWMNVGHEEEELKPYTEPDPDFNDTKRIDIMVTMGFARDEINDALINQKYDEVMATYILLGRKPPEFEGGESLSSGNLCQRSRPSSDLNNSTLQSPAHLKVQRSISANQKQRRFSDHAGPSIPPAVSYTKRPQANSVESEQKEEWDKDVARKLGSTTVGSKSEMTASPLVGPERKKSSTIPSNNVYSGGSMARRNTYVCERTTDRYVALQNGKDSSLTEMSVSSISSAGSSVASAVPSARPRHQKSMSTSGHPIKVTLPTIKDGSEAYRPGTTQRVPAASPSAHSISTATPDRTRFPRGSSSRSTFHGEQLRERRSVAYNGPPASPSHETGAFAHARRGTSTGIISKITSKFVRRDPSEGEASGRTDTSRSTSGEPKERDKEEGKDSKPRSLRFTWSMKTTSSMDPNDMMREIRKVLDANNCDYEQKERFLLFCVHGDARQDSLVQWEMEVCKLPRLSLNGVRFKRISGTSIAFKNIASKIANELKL
Sequence of AKT1 (PKB alpha) (P31749 whole entry): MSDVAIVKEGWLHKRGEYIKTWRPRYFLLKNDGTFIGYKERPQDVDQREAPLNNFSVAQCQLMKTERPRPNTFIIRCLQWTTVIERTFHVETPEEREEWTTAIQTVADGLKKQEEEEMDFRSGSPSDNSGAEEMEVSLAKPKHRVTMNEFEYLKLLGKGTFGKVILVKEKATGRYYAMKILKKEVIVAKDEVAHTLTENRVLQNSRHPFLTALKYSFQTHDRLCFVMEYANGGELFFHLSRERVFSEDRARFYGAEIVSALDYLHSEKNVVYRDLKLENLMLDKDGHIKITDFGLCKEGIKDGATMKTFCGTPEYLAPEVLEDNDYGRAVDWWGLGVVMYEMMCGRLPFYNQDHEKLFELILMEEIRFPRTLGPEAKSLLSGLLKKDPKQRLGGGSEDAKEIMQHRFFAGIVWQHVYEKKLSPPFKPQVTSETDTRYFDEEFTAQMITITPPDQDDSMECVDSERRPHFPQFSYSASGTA
Sequence of GSK3B (GSK3 beta) (P49841 whole entry, species assumed): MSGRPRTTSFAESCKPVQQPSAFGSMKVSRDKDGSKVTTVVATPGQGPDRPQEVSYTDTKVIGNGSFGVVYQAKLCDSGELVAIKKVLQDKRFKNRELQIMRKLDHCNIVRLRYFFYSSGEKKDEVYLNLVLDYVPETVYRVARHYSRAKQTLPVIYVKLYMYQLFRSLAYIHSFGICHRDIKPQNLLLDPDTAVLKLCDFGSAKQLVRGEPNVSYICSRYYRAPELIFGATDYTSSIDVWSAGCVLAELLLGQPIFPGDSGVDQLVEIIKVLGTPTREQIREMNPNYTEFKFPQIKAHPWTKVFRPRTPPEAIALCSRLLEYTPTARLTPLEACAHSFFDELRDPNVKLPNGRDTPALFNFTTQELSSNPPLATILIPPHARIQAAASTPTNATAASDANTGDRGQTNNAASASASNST
Sequence of CHEK2 (CHK2) (O96017 whole entry): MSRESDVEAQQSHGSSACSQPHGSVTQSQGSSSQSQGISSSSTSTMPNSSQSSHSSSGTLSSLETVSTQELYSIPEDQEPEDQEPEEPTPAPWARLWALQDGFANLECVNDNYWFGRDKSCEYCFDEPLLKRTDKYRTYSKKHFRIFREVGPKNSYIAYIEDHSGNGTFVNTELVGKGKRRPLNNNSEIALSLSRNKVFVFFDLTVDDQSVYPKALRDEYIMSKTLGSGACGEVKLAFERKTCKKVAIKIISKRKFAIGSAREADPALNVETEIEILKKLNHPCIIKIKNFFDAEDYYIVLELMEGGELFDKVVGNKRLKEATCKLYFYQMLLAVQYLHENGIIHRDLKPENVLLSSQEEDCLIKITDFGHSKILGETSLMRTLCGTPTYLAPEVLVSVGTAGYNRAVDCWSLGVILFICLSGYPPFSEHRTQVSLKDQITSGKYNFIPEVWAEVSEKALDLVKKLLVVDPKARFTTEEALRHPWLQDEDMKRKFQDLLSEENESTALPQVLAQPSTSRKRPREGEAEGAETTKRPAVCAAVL
Sequence of AKT3 (PKB gamma) (Q9Y243 whole entry): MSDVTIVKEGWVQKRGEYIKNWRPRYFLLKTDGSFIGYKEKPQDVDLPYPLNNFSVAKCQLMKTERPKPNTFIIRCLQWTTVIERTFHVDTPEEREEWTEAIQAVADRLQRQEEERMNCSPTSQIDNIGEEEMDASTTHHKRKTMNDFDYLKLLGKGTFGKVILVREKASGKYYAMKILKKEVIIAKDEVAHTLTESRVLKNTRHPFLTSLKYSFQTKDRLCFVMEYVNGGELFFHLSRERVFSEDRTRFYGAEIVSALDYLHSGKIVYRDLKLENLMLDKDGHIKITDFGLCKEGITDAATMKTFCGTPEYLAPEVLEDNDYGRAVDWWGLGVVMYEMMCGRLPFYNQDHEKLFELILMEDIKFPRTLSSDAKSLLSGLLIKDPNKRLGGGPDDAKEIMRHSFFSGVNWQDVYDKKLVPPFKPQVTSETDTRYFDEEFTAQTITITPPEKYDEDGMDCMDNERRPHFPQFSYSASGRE
Sequence of JAK1 (P23458 whole entry, species assumed): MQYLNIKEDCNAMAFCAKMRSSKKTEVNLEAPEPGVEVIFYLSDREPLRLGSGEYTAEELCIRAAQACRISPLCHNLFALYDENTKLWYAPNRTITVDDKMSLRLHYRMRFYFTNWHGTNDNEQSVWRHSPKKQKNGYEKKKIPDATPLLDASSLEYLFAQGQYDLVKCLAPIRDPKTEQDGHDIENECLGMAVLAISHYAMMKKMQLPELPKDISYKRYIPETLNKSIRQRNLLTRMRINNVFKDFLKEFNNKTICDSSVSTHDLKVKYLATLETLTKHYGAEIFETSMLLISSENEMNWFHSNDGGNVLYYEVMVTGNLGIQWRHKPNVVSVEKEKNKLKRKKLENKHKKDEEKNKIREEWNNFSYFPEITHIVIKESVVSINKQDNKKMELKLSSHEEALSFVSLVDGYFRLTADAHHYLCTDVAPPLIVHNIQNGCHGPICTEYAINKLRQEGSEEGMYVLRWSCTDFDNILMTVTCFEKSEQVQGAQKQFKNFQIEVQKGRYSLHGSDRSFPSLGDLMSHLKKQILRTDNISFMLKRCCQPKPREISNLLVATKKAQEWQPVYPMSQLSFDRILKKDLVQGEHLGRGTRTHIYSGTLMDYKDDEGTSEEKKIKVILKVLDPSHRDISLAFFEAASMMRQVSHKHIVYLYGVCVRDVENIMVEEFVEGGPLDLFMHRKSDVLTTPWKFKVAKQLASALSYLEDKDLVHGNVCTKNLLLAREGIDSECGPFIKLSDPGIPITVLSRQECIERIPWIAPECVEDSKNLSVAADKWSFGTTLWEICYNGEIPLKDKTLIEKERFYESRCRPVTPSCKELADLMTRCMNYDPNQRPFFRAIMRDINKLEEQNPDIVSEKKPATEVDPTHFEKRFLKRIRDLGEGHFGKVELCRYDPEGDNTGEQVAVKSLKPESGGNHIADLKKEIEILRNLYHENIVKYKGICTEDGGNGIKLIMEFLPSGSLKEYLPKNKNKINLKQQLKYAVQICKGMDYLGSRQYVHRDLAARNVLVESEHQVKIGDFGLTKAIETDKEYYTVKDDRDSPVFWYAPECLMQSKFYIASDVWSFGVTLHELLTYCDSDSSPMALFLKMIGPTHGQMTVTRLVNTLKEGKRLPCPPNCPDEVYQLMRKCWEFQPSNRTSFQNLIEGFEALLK
Sequence of CSNK1G1 (CK1 gamma 1) (Q9HCP0 whole entry, species assumed): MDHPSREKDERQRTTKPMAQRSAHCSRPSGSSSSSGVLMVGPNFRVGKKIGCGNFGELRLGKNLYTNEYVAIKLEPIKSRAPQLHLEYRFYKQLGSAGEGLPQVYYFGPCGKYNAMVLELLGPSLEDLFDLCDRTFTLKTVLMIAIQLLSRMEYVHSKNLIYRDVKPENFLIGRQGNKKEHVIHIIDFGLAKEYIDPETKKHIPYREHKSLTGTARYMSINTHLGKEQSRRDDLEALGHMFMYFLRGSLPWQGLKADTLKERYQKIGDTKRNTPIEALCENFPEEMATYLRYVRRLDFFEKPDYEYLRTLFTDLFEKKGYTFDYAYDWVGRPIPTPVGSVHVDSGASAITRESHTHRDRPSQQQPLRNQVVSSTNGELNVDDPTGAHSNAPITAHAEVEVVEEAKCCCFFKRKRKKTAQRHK
Sequence of GSK3A (GSK3 alpha) (P49840 whole entry, species assumed): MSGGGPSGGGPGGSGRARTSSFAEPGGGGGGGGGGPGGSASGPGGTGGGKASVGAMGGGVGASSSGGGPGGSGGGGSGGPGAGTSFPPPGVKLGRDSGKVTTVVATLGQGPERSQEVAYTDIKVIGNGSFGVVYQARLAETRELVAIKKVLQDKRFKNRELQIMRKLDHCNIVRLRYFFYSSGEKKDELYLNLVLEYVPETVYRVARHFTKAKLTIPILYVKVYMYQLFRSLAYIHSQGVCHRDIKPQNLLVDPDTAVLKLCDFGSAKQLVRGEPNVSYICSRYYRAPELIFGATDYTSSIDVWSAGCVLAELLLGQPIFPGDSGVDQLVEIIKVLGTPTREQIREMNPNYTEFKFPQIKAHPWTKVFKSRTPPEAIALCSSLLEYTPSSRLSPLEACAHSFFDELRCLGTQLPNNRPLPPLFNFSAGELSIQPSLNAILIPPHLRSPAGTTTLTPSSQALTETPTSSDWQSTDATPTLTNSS

SMILES: O=C(CNC(=O)c1cccn(Cc2ccc(F)c(F)c2)c1=O)Nc1ccc2c(c1)/C(=C/c1cnc[nH]1)C(=O)N2 [IB35, (Z)—N-(2-((3-((1H-imidazol-5-yl)methylene)-2-oxoindolin-5-yl)amino)-2-oxoethyl)-1-(3,4-difluorobenzyl)-2-oxo-1,2-dihydro pyridine-3-carboxamide]
- inhibition at 0.1 µM (CHEK1 (CHK1); read-out: % Inhibition 1): 10%
- inhibition at 0.1 µM (CHEK1 (CHK1); read-out: % Inhibition 2): 2%
- inhibition at 0.1 µM (CHEK1 (CHK1); read-out: % Inhibition Avg): 6%
- inhibition at 0.1 µM (ROCK1; read-out: % Inhibition 1): -9%
- inhibition at 0.1 µM (ROCK1; read-out: % Inhibition 2): -6%
- inhibition at 0.1 µM (ROCK1; read-out: % Inhibition Avg): -7%
- inhibition at 0.1 µM (MARK1 (MARK); read-out: % Inhibition 1): 20%
- inhibition at 0.1 µM (MARK1 (MARK); read-out: % Inhibition 2): 13%
- inhibition at 0.1 µM (MARK1 (MARK); read-out: % Inhibition Avg): 17%
- inhibition at 0.1 µM (PRKCE (PKC epsilon); read-out: % Inhibition 1): 4%
- inhibition at 0.1 µM (PRKCE (PKC epsilon); read-out: % Inhibition 2): 3%
- inhibition at 0.1 µM (PRKCE (PKC epsilon); read-out: % Inhibition Avg): 3%
- inhibition at 0.1 µM (AKT1 (PKB alpha); read-out: % Inhibition 1): -6%
- inhibition at 0.1 µM (AKT1 (PKB alpha); read-out: % Inhibition 2): -9%
- inhibition at 0.1 µM (AKT1 (PKB alpha); read-out: % Inhibition Avg): -8%
- inhibition at 0.1 µM (PRKCZ (PKC zeta); read-out: % Inhibition 1): -3%
- inhibition at 0.1 µM (PRKCZ (PKC zeta); read-out: % Inhibition 2): -2%
- inhibition at 0.1 µM (PRKCZ (PKC zeta); read-out: % Inhibition Avg): -3%
- inhibition at 0.1 µM (CSNK1G1 (CK1 gamma 1); read-out: % Inhibition 1): 3%
- inhibition at 0.1 µM (CSNK1G1 (CK1 gamma 1); read-out: % Inhibition 2): 2%
- inhibition at 0.1 µM (CSNK1G1 (CK1 gamma 1); read-out: % Inhibition Avg): 3%
- inhibition at 0.1 µM (MAP2K1 (MEK1); read-out: % Inhibition 1): -20%
- inhibition at 0.1 µM (MAP2K1 (MEK1); read-out: % Inhibition 2): -6%
- inhibition at 0.1 µM (MAP2K1 (MEK1); read-out: % Inhibition Avg): -13%
- inhibition at 0.1 µM (ABL1; read-out: % Inhibition 1): 17%
- inhibition at 0.1 µM (ABL1; read-out: % Inhibition 2): 12%
- inhibition at 0.1 µM (ABL1; read-out: % Inhibition Avg): 14%
- inhibition at 0.1 µM (PRKACA (PKA); read-out: % Inhibition 1): -5%
- inhibition at 0.1 µM (PRKACA (PKA); read-out: % Inhibition 2): -5%
- inhibition at 0.1 µM (PRKACA (PKA); read-out: % Inhibition Avg): -5%
- inhibition at 0.1 µM (CDK2/cyclin A; read-out: % Inhibition 1): -1%
- inhibition at 0.1 µM (CDK2/cyclin A; read-out: % Inhibition 2): 8%
- inhibition at 0.1 µM (CDK2/cyclin A; read-out: % Inhibition Avg): 4%
- inhibition at 0.1 µM (LCK; read-out: % Inhibition 1): 10%
- inhibition at 0.1 µM (LCK; read-out: % Inhibition 2): 8%
- inhibition at 0.1 µM (LCK; read-out: % Inhibition Avg): 9%
- inhibition at 0.1 µM (ITK; read-out: % Inhibition 1): 17%
- inhibition at 0.1 µM (ITK; read-out: % Inhibition 2): 12%
- inhibition at 0.1 µM (ITK; read-out: % Inhibition Avg): 14%
- inhibition at 0.1 µM (PRKCB1 (PKC beta I); read-out: % Inhibition 1): -10%
- inhibition at 0.1 µM (PRKCB1 (PKC beta I); read-out: % Inhibition 2): -10%
- inhibition at 0.1 µM (PRKCB1 (PKC beta I); read-out: % Inhibition Avg): -10%
- inhibition at 0.1 µM (IRAK4; read-out: % Inhibition 1): 3%
- inhibition at 0.1 µM (IRAK4; read-out: % Inhibition 2): -14%
- inhibition at 0.1 µM (IRAK4; read-out: % Inhibition Avg): -6%
- inhibition at 0.1 µM (JAK1; read-out: % Inhibition 1): -10%
- inhibition at 0.1 µM (JAK1; read-out: % Inhibition 2): -6%
- inhibition at 0.1 µM (JAK1; read-out: % Inhibition Avg): -8%
- inhibition at 0.1 µM (GSK3B (GSK3 beta); read-out: % Inhibition 1): 23%
- inhibition at 0.1 µM (GSK3B (GSK3 beta); read-out: % Inhibition 2): 25%
- inhibition at 0.1 µM (GSK3B (GSK3 beta); read-out: % Inhibition Avg): 24%
- inhibition at 0.1 µM (AKT3 (PKB gamma); read-out: % Inhibition 1): 3%
- inhibition at 0.1 µM (AKT3 (PKB gamma); read-out: % Inhibition 2): 1%
- inhibition at 0.1 µM (AKT3 (PKB gamma); read-out: % Inhibition Avg): 2%
- inhibition at 0.1 µM (ROCK2; read-out: % Inhibition 1): 3%
- inhibition at 0.1 µM (ROCK2; read-out: % Inhibition 2): 1%
- inhibition at 0.1 µM (ROCK2; read-out: % Inhibition Avg): 2%
- inhibition at 0.1 µM (GSK3A (GSK3 alpha); read-out: % Inhibition 1): 43%
- inhibition at 0.1 µM (GSK3A (GSK3 alpha); read-out: % Inhibition 2): 43%
- inhibition at 0.1 µM (GSK3A (GSK3 alpha); read-out: % Inhibition Avg): 43%
- inhibition at 0.1 µM (CHEK2 (CHK2); read-out: % Inhibition 1): 1%
- inhibition at 0.1 µM (CHEK2 (CHK2); read-out: % Inhibition 2): 8%
- inhibition at 0.1 µM (CHEK2 (CHK2); read-out: % Inhibition Avg): 4%
- inhibition at 0.1 µM (PRKCA (PKC alpha); read-out: % Inhibition 1): -2%
- inhibition at 0.1 µM (PRKCA (PKC alpha); read-out: % Inhibition 2): 2%
- inhibition at 0.1 µM (PRKCA (PKC alpha); read-out: % Inhibition Avg): 0%
- inhibition at 0.1 µM (BRAF; read-out: % Inhibition 1): 16%
- inhibition at 0.1 µM (BRAF; read-out: % Inhibition 2): 17%
- inhibition at 0.1 µM (BRAF; read-out: % Inhibition Avg): 17%
- inhibition at 0.1 µM (GRK5; read-out: % Inhibition 1): -7%
- inhibition at 0.1 µM (GRK5; read-out: % Inhibition 2): 0%
- inhibition at 0.1 µM (GRK5; read-out: % Inhibition Avg): -4%
- inhibition at 0.1 µM (CLK1; read-out: % Inhibition 1): 4%
- inhibition at 0.1 µM (CLK1; read-out: % Inhibition 2): -7%
- inhibition at 0.1 µM (CLK1; read-out: % Inhibition Avg): -2%
- inhibition at 0.1 µM (CDK1/cyclin B; read-out: % Inhibition 1): 10%
- inhibition at 0.1 µM (CDK1/cyclin B; read-out: % Inhibition 2): 3%
- inhibition at 0.1 µM (CDK1/cyclin B; read-out: % Inhibition Avg): 6%
- inhibition at 0.1 µM (RPS6KA1 (RSK1); read-out: % Inhibition 1): -3%
- inhibition at 0.1 µM (RPS6KA1 (RSK1); read-out: % Inhibition 2): 7%
- inhibition at 0.1 µM (RPS6KA1 (RSK1); read-out: % Inhibition Avg): 2%
